The experiment deals with T1, BTK (Homo sapiens, UniProt Q06187).
T1 construct: endogenous in cells; host or cells: TMD-8 cells
As to the kind of experiment: BTK degradation in TMD-8 cells, HTRF assay after 6 h treatment. The settings on record: for DC50: IC50 (DC50) of BTK degradation; for Dmax: TMD8, maximum percentage of inhibition (degradation). The format is cell-based. As for the experimental part: TMD-8 cells are treated with compounds diluted in 0.2% DMSO, dilution is done according to the following protocol: (1) make 500× stock solution in DMSO from 1 mM by 6-fold dilution, total 8 doses were included; (2) make 2× solution in cell culture medium by transferring 0.5 μl 500× stock solution into 125 μl medium; (3) 15 μl of 2× solution is added to cells and incubate for 6 h.
After 6 h treatment, add 10 μl 4×lysis buffer to each well; seal the plate and incubate 30 min at room temperature on a plate shaker; Once the cells are lysed, 16 μL of cell lysate are transferred to a PE 384-well HTRF detection plate; 4 μL of pre-mixed HTRF antibodies are added to each well; Cover the plate with a plate sealer, spin 1000 rpm for 1 min, Incubate overnight at room temperature; Read on BMG PheraStar with HTRF protocol (337 nm-665 nm-620 nm).
The IC50 (DC50) value of a compound can be obtained by fitting the following equation
Y=Bottom+(TOP−Bottom)/(1+((IC50/X)^hillslope))
Wherein, X and Y are known values, and IC50, Hillslope, Top and Bottom are the parameters obtained by fitting with software. Y is the inhibition percentage (calculated from the equation), X is the concentration of the compound; IC50 is the concentration of the compound when the 50% inhibition is reached. The smaller the IC50 value is, the stronger the inhibitory ability of the compound is. Vice versa, the higher the IC50 value is, the weaker the ability the inhibitory ability of the compound is; Hillslope represents the slope of the fitted curve, generally around 1*; Bottom represents the minimum value of the curve obtained by data fitting, which is generally 0%±20%; Top represents the maximum value of the curve obtained by data fitting, which is generally 100%±20%. The experimental data were fitted by calculating and analyzing with Dotmatics data analysis software.

In US20230322761A1, “DEGRADATION OF BRUTON'S TYROSINE KINASE (BTK) BY CONJUGATION OF BTK INHIBITORS WITH E3 LIGASE LIGAND AND METHODS OF USE” (BEIGENE, LTD., priority 2020, published 2023) one finds DC50 and Dmax data, which are given here for 16 molecules.

T1 sequence (Q06187 whole entry): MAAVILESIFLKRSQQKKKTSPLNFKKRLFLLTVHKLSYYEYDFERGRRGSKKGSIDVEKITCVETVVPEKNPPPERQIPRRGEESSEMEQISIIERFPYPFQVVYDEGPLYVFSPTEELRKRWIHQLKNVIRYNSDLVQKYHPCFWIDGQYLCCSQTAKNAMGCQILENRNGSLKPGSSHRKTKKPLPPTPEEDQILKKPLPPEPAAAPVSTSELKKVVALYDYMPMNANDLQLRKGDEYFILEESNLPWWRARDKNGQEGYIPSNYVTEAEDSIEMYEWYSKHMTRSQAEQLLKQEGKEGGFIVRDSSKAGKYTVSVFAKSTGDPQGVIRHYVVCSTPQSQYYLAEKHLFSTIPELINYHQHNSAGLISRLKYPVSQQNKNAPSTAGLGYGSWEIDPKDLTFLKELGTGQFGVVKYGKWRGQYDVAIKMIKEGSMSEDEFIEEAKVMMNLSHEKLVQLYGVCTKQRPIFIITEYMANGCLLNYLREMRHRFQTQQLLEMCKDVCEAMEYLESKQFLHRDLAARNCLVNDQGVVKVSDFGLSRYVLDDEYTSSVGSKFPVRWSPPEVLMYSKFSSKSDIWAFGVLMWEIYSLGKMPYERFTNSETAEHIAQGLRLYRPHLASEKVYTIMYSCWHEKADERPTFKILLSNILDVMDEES

On to `Cc1cc(-c2n[nH]c3ncc(-c4ccc(N5CCN(CCc6ccc(C7CCC(=O)NC7=O)cc6)CC5)cc4)cc23)ccc1[C@@H](C)NC(=O)c1nc(C(C)(C)C)no1` (stereo partly drawn) [Example 33, 3-(tert-butyl)-N-((1R)-1-(4-(5-(4-(4-(4-(2,6-dioxopiperidin-3-yl)phenethyl)piperazin-1-yl)phenyl)-1H-pyrazolo[3,4-b]pyridin-3-yl)-2-methylphenyl)ethyl)-1,2,4-oxadiazole-5-carboxamide], for which the DC50 (usually the concentration at which degradation of the target reaches its halfway point) was 3.85 nM and the maximal degradation (Dmax) (usually the largest share of the target that was removed) came to 99.4%.

For the molecule `Cc1cc(-c2n[nH]c3ncc(-c4ccc(N5CCN(CC6CCN(c7ccc(N8CCC(=O)NC8=O)c(C)c7)CC6)CC5)cc4)cc23)ccc1[C@@H](C)NC(=O)c1nc(C(C)(C)C)no1` [Example 98, (R)-3-(tert-butyl)-N-(1-(4-(5-(4-(4-((1-(4-(2,4-dioxotetrahydropyrimidin-1(2H)-yl)-3-methylphenyl)piperidin-4-yl)methyl)piperazin-1-yl)phenyl)-1H-pyrazolo[3,4-b]pyridin-3-yl)-2-methylphenyl)ethyl)-1,2,4-oxadiazole-5-carboxamide], it took 2.68 nM to reach half-maximal degradation (DC50).

Molecule `COc1cc(CCN2CCN(c3ccc(-c4cnc5[nH]nc(-c6ccc([C@@H](C)NC(=O)c7noc(C(C)(C)C)n7)c(C)c6)c5c4)cc3)CC2)ccc1C1CCC(=O)NC1=O` (stereo partly drawn) [Example 137, 5-(tert-butyl)-N-((1R)-1-(4-(5-(4-(4-(4-(2,6-dioxopiperidin-3-yl)-3-methoxyphenethyl)piperazin-1-yl)phenyl)-1H-pyrazolo[3,4-b]pyridin-3-yl)-2-methylphenyl)ethyl)-1,2,4-oxadiazole-3-carboxamide] had a half-maximal degradation concentration (DC50) of 5.23 nM.

Take `Cc1cc(-c2n[nH]c3ncc(-c4ccc(N5CCN(C6CC(c7ccc([C@H]8CCC(=O)NC8=O)cc7)C6)CC5)cc4)cc23)ccc1[C@@H](C)NC(=O)c1noc(C(C)(C)C)n1` (stereo partly drawn) [Example 223, 5-(tert-butyl)-N—((R)-1-(4-(5-(4-(4-((1S,3r)-3-(4-((S)-2,6-dioxopiperidin-3-yl)phenyl)cyclobutyl)piperazin-1-yl)phenyl)-1H-pyrazolo[3,4-b]pyridin-3-yl)-2-methylphenyl)ethyl)-1,2,4-oxadiazole-3-carboxamide]: the DC50 worked out at 1.56 nM. On the same count and under the same terms, the figure for `Cc1c(CNC(=O)c2nc(C(C)(C)C)no2)ccc(-c2n[nH]c3ncc(-c4ccc(C5CCN(CC6CCN(c7ccc(N8CCC(=O)NC8=O)cc7)CC6)CC5)cc4)cc23)c1F` [Example 219, 3-(tert-butyl)-N-(4-(5-(4-(1-((1-(4-(2,4-dioxotetrahydropyrimidin-1(2H)-yl)phenyl)piperidin-4-yl)methyl)piperidin-4-yl)phenyl)-1H-pyrazolo[3,4-b]pyridin-3-yl)-3-fluoro-2-methylbenzyl)-1,2,4-oxadiazole-5-carboxamide] is 2.23 nM; for `Cc1cc(N2CCC(CCN3CCN(c4ccc(-c5cnc6[nH]nc(-c7ccc([C@@H](C)NC(=O)c8noc(C(C)(C)C)n8)c(C)c7)c6c5)cc4)CC3)CC2)ccc1C1CCC(=O)NC1=O` (stereo partly drawn) [Example 168, 5-(tert-butyl)-N-((1R)-1-(4-(5-(4-(4-(2-(1-(4-(2,6-dioxopiperidin-3-yl)-3-methylphenyl)piperidin-4-yl)ethyl)piperazin-1-yl)phenyl)-1H-pyrazolo[3,4-b]pyridin-3-yl)-2-methylphenyl)ethyl)-1,2,4-oxadiazole-3-carboxamide] it is 15.6 nM; for `COc1cc(N2CCC(CCN3CCN(c4ccc(-c5cnc6[nH]nc(-c7ccc([C@@H](C)NC(=O)c8noc(C(C)(C)C)n8)c(C)c7)c6c5)cc4)CC3)CC2)ccc1C1CCC(=O)NC1=O` (stereo partly drawn) [Example 169, 5-(tert-butyl)-N-((1R)-1-(4-(5-(4-(4-(2-(1-(4-(2,6-dioxopiperidin-3-yl)-3-methoxyphenyl)piperidin-4-yl)ethyl)piperazin-1-yl)phenyl)-1H-pyrazolo[3,4-b]pyridin-3-yl)-2-methylphenyl)ethyl)-1,2,4-oxadiazole-3-carboxamide] it is 15.1 nM. `Cc1nc(CCN2CCN(c3ccc(-c4cnc5[nH]nc(-c6ccc([C@@H](C)NC(=O)c7noc(C(C)(C)C)n7)c(C)c6F)c5c4)cc3)CC2)ccc1C1CCC(=O)NC1=O` (stereo partly drawn) [Example 166, 5-(tert-butyl)-N-((1R)-1-(4-(5-(4-(4-(2-(5-(2,6-dioxopiperidin-3-yl)-6-methylpyridin-2-yl)ethyl)piperazin-1-yl)phenyl)-1H-pyrazolo[3,4-b]pyridin-3-yl)-3-fluoro-2-methylphenyl)ethyl)-1,2,4-oxadiazole-3-carboxamide] showed a 50% degradation concentration (DC50) of 3.07 nM.

`Cc1cc(-c2n[nH]c3ncc(-c4ccc(N5CCN(CCc6ccc(N7CCC(=O)NC7=O)cc6)CC5)cc4)cc23)ccc1[C@@H](C)NC(=O)c1noc(C(C)(C)C)n1` [Example 129, (R)-5-(tert-butyl)-N-(1-(4-(5-(4-(4-(4-(2,4-dioxotetrahydropyrimidin-1(2H)-yl)phenethyl)piperazin-1-yl)phenyl)-1H-pyrazolo[3,4-b]pyridin-3-yl)-2-methylphenyl)ethyl)-1,2,4-oxadiazole-3-carboxamide]: the DC50 came to 3.73 nM. In turn, `Cc1cc(-c2n[nH]c3ncc(-c4ccc(N5CC6(CN(CC7CCN(c8ccc(N9CCC(=O)NC9=O)cc8)CC7)C6)C5)cc4)cc23)ccc1[C@@H](C)NC(=O)c1nc(C(C)(C)C)no1` [Example 212, (R)-3-(tert-butyl)-N-(1-(4-(5-(4-(6-((1-(4-(2,4-dioxotetrahydropyrimidin-1(2H)-yl)phenyl)piperidin-4-yl)methyl)-2,6-diazaspiro[3.3]heptan-2-yl)phenyl)-1H-pyrazolo[3,4-b]pyridin-3-yl)-2-methylphenyl)ethyl)-1,2,4-oxadiazole-5-carboxamide] displayed a DC50 of 1.95 nM. Same read-out and setting: the same measure for `Cc1cc(-c2n[nH]c3ncc(-c4ccc(N5CCN(CCc6ccc([C@H]7CCC(=O)NC7=O)c(F)c6)CC5)cn4)cc23)ccc1[C@@H](C)NC(=O)c1noc(C(C)(C)C)n1` [Example 181, 5-(tert-butyl)-N—((R)-1-(4-(5-(5-(4-(4-((R)-2,6-dioxopiperidin-3-yl)-3-fluorophenethyl)piperazin-1-yl)pyridin-2-yl)-1H-pyrazolo[3,4-b]pyridin-3-yl)-2-methylphenyl)ethyl)-1,2,4-oxadiazole-3-carboxamide]: 1.24 nM; for `Cc1cc(-c2n[nH]c3ncc(-c4ccc(N5CCN(CCc6ccc(C7CCC(=O)NC7=O)c(F)c6)CC5)cn4)cc23)ccc1[C@@H](C)NC(=O)c1noc(C(C)(C)C)n1` (stereo partly drawn) [Example 146, 5-(tert-butyl)-N-((1R)-1-(4-(5-(5-(4-(4-(2,6-dioxopiperidin-3-yl)-3-fluorophenethyl)piperazin-1-yl)pyridin-2-yl)-1H-pyrazolo[3,4-b]pyridin-3-yl)-2-methylphenyl)ethyl)-1,2,4-oxadiazole-3-carboxamide]: 1.74 nM.

`Cc1cc(-c2n[nH]c3ncc(-c4ccc(C5CCN(CCC6CCN(c7ccc(N8CCC(=O)NC8=O)cc7)CC6)CC5)cc4)cc23)ccc1CNC(=O)c1nc(C(C)(C)C)no1` [Example 5, 3-(tert-butyl)-N-(4-(5-(4-(1-(2-(1-(4-(2,4-dioxotetrahydropyrimidin-1(2H)-yl)phenyl)piperidin-4-yl)ethyl)piperidin-4-yl)phenyl)-1H-pyrazolo[3,4-b]pyridin-3-yl)-2-methylbenzyl)-1,2,4-oxadiazole-5-carboxamide] gave a DC50 of 1.55 nM and a Dmax of 97%.

As for `Cc1cc(-c2n[nH]c3ncc(-c4ccc(N5CCN(CC6CCN(c7ccc(N8CCC(=O)NC8=O)cc7)CC6)CC5)cc4)cc23)ccc1[C@@H](C)NC(=O)c1noc(C(C)(C)C)n1` [Example 37, (R)-5-(tert-butyl)-N-(1-(4-(5-(4-(4-((1-(4-(2,4-dioxotetrahydropyrimidin-1(2H)-yl)phenyl)piperidin-4-yl)methyl)piperazin-1-yl)phenyl)-1H-pyrazolo[3,4-b]pyridin-3-yl)-2-methylphenyl)ethyl)-1,2,4-oxadiazole-3-carboxamide], the DC50 came to 2.52 nM and the Dmax is 93.4%. `Cc1cc(-c2n[nH]c3ncc(-c4ccc(N5CCN(CC6CCN(c7cccc(N8CCC(=O)NC8=O)c7)CC6)CC5)cc4)cc23)ccc1[C@@H](C)NC(=O)c1noc(C(C)(C)C)n1` [Example 138, (R)-5-(tert-butyl)-N-(1-(4-(5-(4-(4-((1-(3-(2,4-dioxotetrahydropyrimidin-1(2H)-yl)phenyl)piperidin-4-yl)methyl)piperazin-1-yl)phenyl)-1H-pyrazolo[3,4-b]pyridin-3-yl)-2-methylphenyl)ethyl)-1,2,4-oxadiazole-3-carboxamide] had a DC50 of 8.6 nM. The molecule `Cc1cc(-c2n[nH]c3ncc(-c4ccc(N5CCN(CCc6ccc(C7CCC(=O)NC7=O)c(F)c6)CC5)nc4)cc23)ccc1[C@@H](C)NC(=O)c1noc(C(C)(C)C)n1` (stereo partly drawn) [Example 199, 5-(tert-butyl)-N-((1R)-1-(4-(5-(6-(4-(4-(2,6-dioxopiperidin-3-yl)-3-fluorophenethyl)piperazin-1-yl)pyridin-3-yl)-1H-pyrazolo[3,4-b]pyridin-3-yl)-2-methylphenyl)ethyl)-1,2,4-oxadiazole-3-carboxamide] yielded a DC50 of 5.09 nM.
